Measurements taken from patent publication US20240058344A1, “METHODS OF TREATING NEURODEGENERATIVE DISORDERS AND STAT3-LINKED CANCERS USING SUPPRESSORS OF ELECTRON LEAK” (Cornell University, priority 2020, published 2024).

Key:
[1] = Brain levels of compound after i.p. injection or oral consumption (pharmacokinetics); format: in vivo, mice
Experimental: (FIGS. 1A-B) Levels of S3QEL2 (FIG. 1A) and S1QEL1.1 (FIG. 1B) in the brain following a single i.p. injection or oral consumption (per oral, PO), which improved duration of exposure. n=3-6 wild-type mice per group. (FIGS. 1C-D) Body weights of male nontransgenic (NTG) or hTauP301S mice treated with S3QEL2 (FIG. 1C) (S3, 5 mg/kg/day, PO in almond butter), S1QEL1.1 (FIG. 1D) (10 mg/kg/day, PO in almond butter), or vehicle. (FIG. 1E) Levels of S3QEL2 in the mouse brain following almond butter (AB) or chow administration at indicated doses for 21 days. (n=15 mice per dose). n=3-15 wild-type mice per condition. (FIG. 1F) Body weight of 4-5-month-old wild-type male mice treated with formulated chow containing S3QEL2 at indicated doses and durations (n=15 mice per dose).
(§1) A series of pharmacokinetic and drug tolerance experiments with S3QEL2 in adult wild-type and transgenic hTauP301S mice was first performed. Different administration routes and drug formulations were tested. […] Chow that was formulated to deliver 0, 5, 15, or 30 mg/kg/day of S3QEL2 was also tested.

[2] = Drug tolerance during chronic oral administration (body weight, behavior); format: in vivo, mice
Experimental: (FIGS. 1C-D) Body weights of male nontransgenic (NTG) or hTauP301S mice treated with S3QEL2 (FIG. 1C) (S3, 5 mg/kg/day, PO in almond butter), S1QEL1.1 (FIG. 1D) (10 mg/kg/day, PO in almond butter), or vehicle. (FIG. 1E) Levels of S3QEL2 in the mouse brain following almond butter (AB) or chow administration at indicated doses for 21 days. (n=15 mice per dose). n=3-15 wild-type mice per condition. (FIG. 1F) Body weight of 4-5-month-old wild-type male mice treated with formulated chow containing S3QEL2 at indicated doses and durations (n=15 mice per dose).
as §1

[3] = Solubility in aqueous solutions; format: physicochemical
[4] = test system: GFAP; phospho-serine 202/205 tau; test: Immunofluorescent staining of GFAP and phospho-serine 202/205 tau (AT8) in hTauP301S mice; format: in vivo; conditions: 6 weeks oral dosing
From the text: Immunofluorescent staining and quantification of astrocytic marker GFAP (red, FIG. 4A) and phospho-serine 202/205 tau (AT8, green, FIG. 4B) in male nontransgenic (NTG) and hTauP301S mice after 6 weeks of oral dosing with S3QEL2 or vehicle. (FIGS. 4C-4E) n=12-16 mice per group; *p<0.05, **p<0.01, ***p<0.001, ANOVA with Bonferroni's test.
As assessed by immunolabeling, hTauP301S mice treated with S3QEL2 also had reduced levels of glial fibrillary acidic protein (GFAP)-positive astrogliosis and phosphorylated tau (FIG. 7). Western blotting confirmed reduced levels of phosphorylated but not total tau in these mice (FIG. 5).

[5] = test system: hTauP301S mice; test: Survival of hTauP301S mice on S3QEL2-formulated chow; format: in vivo; conditions: long-term chow administration from 4-5 months of age
From the text: Nontransgenic (NTG) and transgenic hTauP301S male mice received oral dosing with S3QEL2-formulated chow or control chow (Control) for indicated durations starting at 4-5 months of age. n=14-15 mice per genotype and treatment, pairwise Mantel-Cox test.
Survival rates in wild-type and transgenic hTauP301S mice during chronic treatment with control or S3QEL2-containing chow was also monitored.

[6] = test system: astrocytic-neuronal co-cultures; test: Neuronal damage (NeuN) and neuronal firing (MEA) in astrocytic-neuronal co-cultures with AAV-TauP301S; format: cell-based, mouse; conditions: 1 μM
Experimental: (FIG. 10A) Co-cultures were immunostained for NeuN following transduction with AAV encoding human P301S mutant tau. Vehicle (Veh) or S3QEL2 (S3, 1μM) was added on day 8 in vitro and cells were analyzed on day 14. (FIG. 10B) Example traces recorded using multi-electrode array (MEA). Spikes (black) and network bursts (pink boxes). Top traces show population activities. (FIG. 10C) Average neuronal firing (% of baseline) in co-cultures. Mock treatment (control) or AAV-TauP301S with or without S3QEL2 (S3, 1μM) were added on day 6. n=4 wells per condition, *p<0.05, ANOVA with Bonferroni's test.
To begin dissecting the mechanisms by which S3QEL2 affects neural cell function and disease-linked processes, studies in primary cultures were conducted. Isolated mouse-derived neurons were transduced with adeno-associated viral vectors (AAVs) encoding wild-type or the P301S mutant form of the human tau protein (FIG. 8A). […] However, S3QEL reduced neuronal damage in the presence of astrocytes (approx. 30% astrocytes, FIG. 10A). Tau can also promote aberrant neuronal activity and hypersynchrony. S3QEL reduced aberrant neuronal firing in tau-transduced neurons co-cultured with astrocytes (FIGS. 10B-10C).

[7] = test system: T98G glioblastoma cells; test: Glioblastoma cell proliferation, CellTiter-Glo luciferase assay, T98G; format: cell-based, human; conditions: 0-50 μM, 72 and 96 h
Experimental: Relative cell density was measured using the CellTiter-Glo luciferase assay. n=3 wells per condition. *p<0.05, **p<0.01, ***p<0.001 vs. 0 μM, one-way ANOVA with Dunnett's multiple comparisons test.
The effect of S3QELs on proliferation of glial tumor cells that have different oncogenic mutations was assessed. In particular, proliferation rates were assessed in three different human immortalized glioblastoma cells lines (A-172, T98G, and U-87 MG). A-172 and U-87 lines have mutations in PTEN, a phosphatase that indirectly regulates PI3K activities, whereas T98G cell line has a mutation in p53, a well-known tumor suppressor gene. STAT3 can affect PI3K signaling and p53 transcription and could thereby promote glioblastoma cell proliferation. Whether S3QELs reduce glioblastoma cell proliferation and aberrant intracellular signaling was tested.
Briefly, two complementary methods were used to assess cell proliferation, including the CellTiter-Glo assay and DAPI staining of cell nuclei. The effects of S3QEL2 treatment on A-172, T98G, and U-87 MG cells were measured at different drug concentrations (0, 6, 20, 30, 40, or 50 μM) and time-points after treatment (72 or 96 hours). S3QEL2 inhibits proliferation of A-172 and T98G glioblastoma cells in a highly dose-dependent manner and these effects are similar at different time-points (FIG. 15A-B).

SMILES: CCCN(CCC)c1ncnc2c1cnn2-c1ccc(C)c(C)c1 [S3QEL2]
- Crossing of the blood-brain barrier (levels in the brain) ([1]; after peripheral administration, wild-type mice): readily crossed the blood-brain barrier
- Increase in the area under the curve of drug presence in the brain, oral intake as compared to i.p. injection ([1]; brain, oral vs intraperitoneal): 6 fold
- Chronic delivery to the brain by formulated chow ([1]; chow vs almond butter, 21 days, wild-type mice): equally effective in chronically delivering S3QEL2 to the brain
- Adverse health effects such as weight loss or altered behavior ([2]; PO in almond butter, S3QEL2 5 mg/kg/day, S1QEL1.1 10 mg/kg/day, NTG or hTauP301S mice): did not result in obvious adverse health effects
- Tolerability of chow administration ([2]; chow 5, 15 or 30 mg/kg/day, high doses and long treatment durations, adult wild-type mice): tolerated well
- Solubility in aqueous solutions [3]: limited solubility in aqueous solutions
- GFAP-positive astrogliosis (immunolabeling) [4]: reduced
- Phosphorylated tau (AT8 immunolabeling) [4]: reduced
- Early mortality associated with tauopathy [5]: significantly reduced early mortality
- Aberrant increases in neuronal firing (MEA) in astrocytic-neuronal co-cultures ([6]; added day 6): prevented
- Neuronal damage (NeuN) in astrocytic-neuronal co-cultures ([6]; added day 8, analyzed day 14): prevented neuronal damage
- Cell proliferation (relative cell density, CellTiter-Glo) [7]: dose-dependently inhibited cell proliferation
